Values quoted from earlier work in patent US8623409B1, “Clonidine formulation” (Tris Pharma Inc., priority 2010, dated 2014).

Conditions: plasma level; see US patent application 2008/0152709

Clc1cccc(Cl)c1NC1=NCCN1 [clonidine, N-(2,6-dichlorophenyl)-4,5-dihydro-1H-imidazol-2-amine]
minimum effective dose for clonidine use as an anti-hypertensive agent: 200 pg/mL
